Assays:
[1] = Displacement of [3H]-YM09151-2 from dopamine D2 receptor (unknown origin) expressed in sheep striatum membranes assessed as high affinity constant after 2 hrs by scintillation counting analysis
[2] = Displacement of [3H]-SCH23390 from dopamine D1 receptor (unknown origin) expressed in sheep striatum membranes after […] by scintillation counting analysis
[3] = Displacement of [3H]-R-PIA from adenosine A1 receptor (unknown origin) expressed in sheep striatum membranes after 2 hrs by scintillation counting analysis
[4] = Displacement of [3H]-YM09151-2 from dopamine D2 receptor (unknown origin) expressed in sheep striatum membranes assessed as low affinity constant after 2 hrs by scintillation counting analysis

Row | Kd [1] | Kd [2] | Kd [3] | Kd [4] | SMILES
1 | 4.7 µM | 1.2 µM | > 100 µM |  | CCCC[C@H](NC(=O)[C@H]1CC[C@@H]2c3[nH]c4ccccc4c3CCN2C1)C(=O)N[C@@H](Cc1ccc(O)cc1)C(=O)N[C@@H](CCCCN)C(N)=O
2 | 0.19 µM | 1.3 µM | > 100 µM | 8 µM | CCCC[C@H](NC(=O)[C@H]1CC[C@@H]2c3[nH]c4ccccc4c3CCN2C1)C(=O)N[C@@H](Cc1ccc(F)c(F)c1)C(=O)N[C@@H](CCCCN)C(N)=O

Source: BindingDB's records for doi:10.1016/j.ejmech.2015.04.052 (University of Barcelona, 2015)
